Assay results published in ChEMBL document CHEMBL4613241, “Disulfide Cleavage in a Dimeric Epipolythiodioxopiperazine Natural Product Diminishes Its Apoptosis-Inducing Effect but Enhances Autophagy in Tumor Cells” (2020).
Active and inactive are the calls of the source. The rule behind the calls is not given here.

Experiments:
HepG2 [1] = assay: Activation of AMPKalpha in human HepG2 cells assessed as ratio of phosphorylated AMPKalpha at T172 residue to total ERK level at 0.5 uM incubated for 4 hrs by Western blot analysis (reference value: 1); type: cell-based
[2] = molecular target: RAC-alpha serine/threonine-protein kinase (Homo sapiens) (UniProt P31749); assay: Inhibition of AKT phosphorylation at S473 residue in human HepG2 cells assessed as ratio of phosphorylated Akt to total Akt level at 0.5 uM after 4 hrs by Western blot analysis (reference value: 1); type: cell-based
HepG2 [3] = assay: Induction of apoptosis in human HepG2 cells assessed as increase in cleaved PARP level by measuring ratio of cleaved PARP to total PARP level at 0.5 uM after 12 hrs by Western blot analysis; type: functional
HepG2 [4] = assay: Induction of autophagy in human HepG2 cells assessed as ratio of LC3-2 to total Erk1/2 protein level at 0.5 uM after 4 hrs by Western blot analysis (reference value: 1); type: functional
HepG2 [5] = assay: Antiproliferative activity against human HepG2 cells assessed as reduction in cell viability at 0.5 uM by MTS assay; type: functional, cell-based; conditions: TDE = time-dependent effect
[6] = molecular target: Serine/threonine-protein kinase mTOR (Homo sapiens) (UniProt P42345); assay: Inhibition of mTOR phosphorylation at S2448 residue in human HepG2 cells assessed as ratio of phosphorylated mTOR to total mTOR level at 0.5 uM after 4 hrs by Western blot analysis (reference value: 1); type: cell-based
HepG2 [7] = assay: Induction of autophagy in human HepG2 cells assessed as ratio of LC3-2 level to total ERK level at 0.5 uM after 2 hrs in presence of PFK15 and CQ by Western blot analysis relative to PFK15; type: functional
HepG2 [8] = assay: Induction of autophagy in human HepG2 cells assessed as ratio of LC3-2 level to total ERK level at 0.5 uM after 2 hrs in presence of PFKFB3 siRNA and CQ by Western blot analysis (reference value: 0.8); type: functional
A549 = assay: Antiproliferative activity against human A549 cells assessed as reduction in cell viability by MTS assay; type: functional, cell-based
HepG2 [9] = assay: Induction of autophagy in human HepG2 cells assessed as ratio of LC3-2 level to total ERK level at 0.5 uM after 2 hrs in presence of HK2 siRNA by Western blot analysis (reference value: 3.1); type: functional
[10] = molecular target: Serine/threonine-protein kinase mTOR (Homo sapiens) (UniProt P42345); assay: Inhibition of mTOR phosphorylation at S2448 residue in human HepG2 cells assessed as ratio of phosphorylated mTOR to total ERK level at 0.25 uM after 4 hrs by Western blot analysis (reference value: 1); type: cell-based
HepG2 [11] = assay: Induction of ROS generation in human HepG2 cells at 0.5 uM by DCFH-DA staining based fluorescence assay; type: functional, cell-based; conditions: TDE = time-dependent effect
HepG2 [12] = assay: Induction of autophagy in human HepG2 cells assessed as ratio of LC3-2 level to total ERK level at 0.5 uM after 2 hrs in presence of HK2 siRNA and CQ by Western blot analysis relative to HK2 siRNA; type: functional
HepG2 [13] = assay: Induction of autophagy in human HepG2 cells assessed as increase in LC3 puncta staining at 0.5 uM after 4 hrs by immunostaining based fluorescence microscopic analysis; type: functional, cell-based
MCF7 = assay: Antiproliferative activity against human MCF7 cells assessed as reduction in cell viability by MTS assay; type: functional, cell-based
[14] = molecular target: Serine/threonine-protein kinase mTOR (Homo sapiens) (UniProt P42345); assay: Inhibition of mTOR phosphorylation at S2448 residue in human HepG2 cells assessed as ratio of phosphorylated mTOR to total mTOR level at 0.1 uM after 4 hrs by Western blot analysis (reference value: 1); type: cell-based
HCT-116 [15] = assay: Antiproliferative activity against human HCT116 cells assessed as reduction in cell viability by MTS assay; type: functional, cell-based
HCT-116 [16] = assay: Inhibition of colony formation in human HCT116 at 0.1 uM after 2 weeks by trypan blue staining based assay relative to control; type: functional; conditions: HCT-116, 336 h
HepG2 [17] = assay: Activation of AMPKalpha in human HepG2 cells assessed as ratio of phosphorylated ACCalpha at S79 residue to total ERK level at 0.5 uM incubated for 4 hrs in presence of CC by Western blot analysis (reference value: 1.1); type: cell-based
T-24 [18] = assay: Antiproliferative activity against human T24 cells assessed as reduction in cell viability by MTS assay; type: functional, cell-based
HepG2 [19] = assay: Inhibition of colony formation in human HepG2 at 0.1 uM after 2 weeks by trypan blue staining based assay relative to control; type: functional; conditions: HepG2, 336 h
ACHN [20] = assay: Antiproliferative activity against human ACHN cells assessed as reduction in cell viability at 0.5 uM measured up to 72 hrs by MTS assay; type: functional, cell-based
HepG2 [21] = assay: Induction of autophagy in human HepG2 cells ratio of LC3-2 level to total ERK level at 0.5 uM after 2 hrs in presence of 2-DG and CQ by Western blot analysis relative to 2-DG; type: functional
HeLa [22] = assay: Inhibition of colony formation in human HeLa at 0.1 uM after 2 weeks by trypan blue staining based assay relative to control; type: functional; conditions: 336 h
HepG2 [23] = assay: Induction of autophagy in human HepG2 cells assessed as ratio of LC3-2 level to total ERK level at 0.5 uM after 2 hrs in presence of PFKFB3 siRNA by Western blot analysis (reference value: 0.8); type: functional
HepG2 [24] = assay: Induction of autophagy in human HepG2 cells ratio of LC3-2 level to total ERK level at 0.5 uM after 2 hrs in presence of PFKFB3 siRNA and CQ by Western blot analysis relative to PFKFB3 siRNA; type: functional
HeLa [25] = assay: Antiproliferative activity against human HeLa cells assessed as reduction in cell viability by MTS assay; type: functional, cell-based
HepG2 [26] = assay: Activation of AMPKalpha in human HepG2 cells assessed as ratio of ACCalpha phosphorylation at S79 residue to total ERK level at 0.5 uM incubated for 4 hrs by Western blot analysis (reference value: 1); type: cell-based
T-24 [27] = assay: Induction of apoptosis in human T24 cells assessed as increase in cleaved PARP1 level at 5 uM after 12 hrs by Western blot analysis; type: functional, cell-based
HCT-116 [28] = assay: Inhibition of colony formation in human HCT116 at 1 to 5 uM after 2 weeks by trypan blue staining based assay; type: functional, cell-based
HepG2 [29] = assay: Induction of apoptosis in human HepG2 cells assessed as increase in cleaved PARP1 level at 5 uM after 12 hrs by Western blot analysis; type: functional, cell-based
ACHN [30] = assay: Antiproliferative activity against human ACHN cells assessed as reduction in cell viability at 5 uM measured up to 72 hrs by MTS assay; type: functional, cell-based
HeLa [31] = assay: Inhibition of colony formation in human HeLa at 1 to 5 uM after 2 weeks by trypan blue staining based assay; type: functional, cell-based
HepG2 [32] = assay: Induction of autophagy in human HepG2 cells assessed as ratio of LC3-2 level to total Erk1/2 protein level at 0.5 uM after 4 hrs in presence of CC by Western blot analysis (reference value: 1.3); type: functional
HepG2 [33] = assay: Induction of autophagy in human HepG2 cells assessed as increase in formation of autophagosomes at 0.5 uM after 2 to 48 hrs by TEM analysis; type: functional, cell-based

RAC-alpha serine/threonine-protein kinase (Homo sapiens), sequence (P31749 whole entry): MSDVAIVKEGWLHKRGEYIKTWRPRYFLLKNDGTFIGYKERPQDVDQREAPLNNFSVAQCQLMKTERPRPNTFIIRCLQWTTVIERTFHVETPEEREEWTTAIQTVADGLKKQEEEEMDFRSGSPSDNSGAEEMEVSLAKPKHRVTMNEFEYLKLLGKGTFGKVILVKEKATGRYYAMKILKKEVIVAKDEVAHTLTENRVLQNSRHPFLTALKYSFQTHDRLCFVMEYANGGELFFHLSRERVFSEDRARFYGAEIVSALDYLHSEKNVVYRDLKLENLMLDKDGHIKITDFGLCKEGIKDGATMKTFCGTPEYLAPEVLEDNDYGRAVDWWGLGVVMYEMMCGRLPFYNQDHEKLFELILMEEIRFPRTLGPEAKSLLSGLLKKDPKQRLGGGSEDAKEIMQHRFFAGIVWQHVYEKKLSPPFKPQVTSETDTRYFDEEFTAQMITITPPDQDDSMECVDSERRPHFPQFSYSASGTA

| SMILES | Ratio (HepG2 [1]) | Ratio [2] | Ratio (HepG2 [4]) | Ratio [6] | fold change (FC) (HepG2 [7]) | Ratio (HepG2 [8]) | Activity (A549) | Ratio (HepG2 [9]) | Ratio [10] | fold change (FC) (HepG2 [12]) | Activity (HepG2 [13]) | Activity (MCF7) | Ratio [14] | Activity (HCT-116 [15]) | Ratio (HepG2 [17]) | Activity (T-24 [18]) | fold change (FC) (HepG2 [21]) | Ratio (HepG2 [23]) | fold change (FC) (HepG2 [24]) | Activity (HeLa [25]) | other results |
| --- | --- | --- | --- | --- | --- | --- | --- | --- | --- | --- | --- | --- | --- | --- | --- | --- | --- | --- | --- | --- | --- |
| CC[C@@]12SS[C@]3(C(=O)N1C)[C@@H](O)C1(C45c6ccccc6N[C@@H]4N4C(=O)[C@]6([C@@H](C)O)SS[C@]4(C(=O)N6C)[C@H]5O)c4ccccc4N[C@@H]1N3C2=O (stereo partly specified) | 1.2 | 1.4 | 1.2 | 1.8 | 3.4 | 4.3 | Active | 1.6 | 1 | 2.8 | Active | Active | 1.2 | Active | 1 | Active | 3.7 | 0.9 | 4.8 | Active | Ratio (HepG2 [3]): 0.1; Activity (HepG2 [5]): Tde; Activity (HepG2 [11]): Tde; inhibition at 0.1 µM (HCT-116 [16]): 100%; inhibition at 0.1 µM (HepG2 [19]): 100%; Activity (ACHN [20]): Active; inhibition at 0.1 µM (HeLa [22]): 100%; Ratio (HepG2 [26]): 1.4 |
| CCC1(SC)C(=O)N2[C@H]3N(C)c4ccccc4C3(C34c5ccccc5N(C)[C@@H]3N3C(=O)C(SC)([C@@H](C)O)N(C)C(=O)C3(SC)[C@H]4O)[C@H](O)C2(SC)C(=O)N1C (stereo partly specified) | 1.4 | 1.4 | 1.1 | 2.2 | 2.4 | 4.6 | Active | 1.1 | 1 | 6.6 | Active | Active | 1.8 | Active | 1.1 | Active | 3.7 | 1 | 4.6 | Active | Activity (T-24 [27]): inactive; inhibition (HCT-116 [28]): Active; Activity (HepG2 [29]): inactive; Activity (ACHN [30]): Active; inhibition (HeLa [31]): Active; Ratio (HepG2 [32]): 0.7; Activity (HepG2 [33]): Active; Ratio (HepG2 [26]): 1.7 |
